Measurements as given in patent US20250154163A1, “Pyrimidinone-Containing 17-Beta-Hydroxysteroid Dehydrogenase Type 13 Inhibitors” (ENANTA PHARMACEUTICALS, INC., priority 2023, published 2025).

Test system: C57BL/6J mice fed CDAA-HF
Test: Fibrotic markers in livers of mice fed choline deficient high fat (CDAA-HF) diet
Format: in vivo, mouse
Conditions: 20, 60 and 200 mg/kg oral gavage daily, final week of 4 weeks CDAA-HF, *p<0.05 vs vehicle
Experimental: The choline deficient amino acid defined diet (CDAA) is a well-characterized model of […] associated liver inflammation and fibrosis. The CDAA-HF mouse model is commonly used to preclinically evaluate potential therapeutic targets for non-alcoholic steatohepatitis (NASH). To investigate the effect of Compound 26 (Example 26; 20, 60, and 200 mg/kg, oral gavage, daily) on fibrotic gene and protein parameters, 10 week-old male C57BL/6J mice were fed CDAA-HF (choline deficient, L-amino acid defined, high fat diet; A16092201) for 4 weeks, with Compound 26 treatment only during the final week of the study. On the last day of the study, mice were euthanized by CO2 asphyxiation for tissue collection, and blood was collected by cardiac puncture. Livers were rapidly removed and frozen in liquid nitrogen for downstream mRNA and protein isolation. […] Statistical analysis was performed with One Way ANOVA. *p<0.05 vs vehicle treated (FIG. 1). Col1a1=Collagen; TGFB2=transforming growth factor beta 2. All procedures performed on animals were in accordance with regulations and established guidelines and were reviewed and approved by an Institutional Animal Care and Use Committee or through an ethical review process.

COc1ccc(-c2nc3sc4c(O)c(Cl)ccc4c3c(=O)n2Cc2cnco2)c(C2CC2)c1 [Example 26, 7-chloro-2-(2-cyclopropyl-4-methoxyphenyl)-8-hydroxy-3-(oxazol-5-ylmethyl)benzo[4,5]thieno[2,3-d]pyrimidin-4(3H)-one]
significantly decreases: liver collagen (Col1a1) mRNA (FIG. 1a) | liver TGFB2 (fibrotic cytokine) (FIG. 1b) | liver fibronectin (fibroblast activation marker) (FIG. 1c)
